Source: patent publication US20240041838A1, “METHODS AND COMPOSITIONS FOR INHIBITION OF NEUTROPHIL RECRUITMENT IN MYCOCARDIAL ISCHEMIA-REPERFUSION INJURY” (University of Connecticut, priority 2022, published 2024)

What was measured:
human neutrophils = assay: microfluidic perfusion assay: neutrophil rolling and arrest on P-selectin/ICAM-1 with IL-8; format: cell-based; details: 10 μM
Method: The assembly of the microfluidic devices used in this study and the coating of coverslips with recombinant human P-selectin-Fc and ICAM-1-Fc with or without IL-8 have been described previously. Briefly, coverslips were coated with P-selectin-Fc (2 μg·ml^−1) and ICAM-1-Fc (10 μg·ml^−1) without or with IL-8 (10 μg·ml^−1) for two hours and then blocked for one hour with casein (1%) at RT. After coating, coverslips were sealed with polydimethylsiloxane chips by magnetic clamps to create flow chamber channels ˜29 μm high and ˜300 μm across. By modulating the pressure between the inlet well and the outlet reservoir, 6 dyn·cm^−2 wall shear stress was applied in all experiments.
To study the rolling and arrest of neutrophils, isolated human neutrophils (5×10^6 cells·ml^−1) were perfused in the microfluidic device over a substrate of recombinant human P-selectin-Fc and recombinant human ICAM-1-Fc with or without IL-8 under a shear stress of 6 dyn·cm^−2. […] Time-lapse images (one frame per second) were taken by an IX71 inverted research microscope (Olympus America) with a 40× NA 0.9 air objective during the perfusion to quantify rolling velocity. The quantification was done using the “Manual tracking” plugin in FIJI-ImageJ v2.0. Cell tracks (FIG. 1A) and rolling velocity were obtained (FIGS. 1B, 2C). After perfusion with neutrophils for 10 minutes, the microfluidic device was washed with RPMI-1640 without phenol red plus 2% HSA for 5 minutes. Then, the arrested neutrophils were counted in nine fields-of-view per group (FIG. 1D).

neutrophils = details: reported; cited from earlier work
[1] = tested on: IL-8-induced Ca^2+ signal in neutrophils; assay: intracellular Ca2+ flux by Fluo-4 time-resolved flow cytometry; format: cell-based, human; details: 10 μM, RT 1 hour; 1 μg·mL^−1 IL-8
Method: To monitor the dynamics of intracellular calcium (Ca^2+) flux, neutrophils (2×10^6 cells·mL^−1 in RPMI-1640 without phenol red plus 2% HSA) were incubated with Fluo-4 (4 μg·mL^−1) for one hour at RT. After washes, neutrophils were resuspended in RPMI-1640 without phenol red plus 2% HSA and assessed by an LSRII analyzer (BD Biosciences, San Jose, CA). One minute after analyzing, 1 μg·mL^−1 IL-8 was added to the cells. Cells were put back into the analyzer for another 9 minutes. The curves showing the dynamics of intracellular Ca^2+ flux (FIG. 2H) were generated by FlowJo software (version 10.6). The quantification of Fluo-4 MFI (FIG. 2I) was analyzed by FlowJo software (version 10.6) and obtained from three individual experiments.

[2] = tested on: mouse myocardial I/R injury; assay: neutrophil recruitment in mouse myocardial I/R injury (multi-photon microscopy, flow cytometry); format: in vivo; details: I/R 35/60 minutes
Source text: C57BL/6J wild-type mice (000664; JAX) were originally obtained from the Jackson Laboratory. LysM-EGFP or Lyz2-EGFP mice were originally obtained from Albert Einstein College of Medicine through a material transfer agreement. Mice were fed a standard rodent chow diet and were housed in microisolator cages in a pathogen-free facility in the Center for Comparative Medicine at UConn Health. All experiments followed the UConn Health Institutional Animal Care and Use Committee (IACUC) guidelines, and approval for the use of rodents was obtained from the UConn Health IACUC according to criteria outlined in the Guide for the Care and Use of Laboratory Animals from the National Institutes of Health. Both male and female mice aged from 12 to 16 weeks were used in the experiments.
Mice were subjected to 35 minutes of myocardial ischemia and 1 (for multi-photon microscopy and flow cytometry) or 22-26 (for TTC-phthalo-blue staining) hours of reperfusion. […] Briefly, anesthesia was induced with an intraperitoneal injection of ketamine hydrochloride (125 mg·kg^−1) and xylazine (12.5 mg·kg^−1). Mice were intubated with 24G×3/4″ Surflo i.v. catheter and ventilated using MiniVent 845 (Harvard Apparatus).
Surgeries were performed under an SMZ168 Stereo Zoom microscope (Motic). Ischemia was achieved by ligating the left anterior descending coronary artery (LAD) using a 6-0 silk suture with a section of PE-10 tubing placed over the LAD, 1 mm from the tip of the normally positioned left atrium. One important problem in drug administration is water solubility, which greatly affects drug absorption and bioavailability. […] In clinics, the primary percutaneous coronary intervention aims to be performed less than 90 min (within 60 min is preferable) after the patient arrives. […] After occlusion for 35 minutes, reperfusion was initiated by releasing the ligature and removing the PE-10 tubing. The chest wall was closed, the animal extubated, and body temperature was maintained by use of a 37° C. warm pad. Hearts were harvested 1 or 22-26 hours later. The loosened suture was left in place and then retied for the purpose of evaluating the ischemic area. Sham control and no drug administered control were performed as well.
To assess the neutrophil recruitment in myocardial I/R injury, LysM-EGFP mice underwent 35 minutes of ischemia and 1 hour of reperfusion. […] After being fixed with 1% PFA and washes with ice-cold PBS, cell fluorescence was assessed with an LSRII (BD Biosciences, San Jose, CA) and analyzed with FlowJo software (version 10.6). […]

For CC(C)(C)C(=O)/C(=C\c1cccc([N+](=O)[O-])c1)n1cncn1 [Nexinhib20, 4,4-dimethyl-1-(3-nitrophenyl)-2-(1H-1,2,4-triazol-1-yl)-1-penten-3-one], the “effect of IL-8 on rolling velocity of treated neutrophils” value (human neutrophils; RT 1 hour) was “did not slow down”, the “neutrophil arrest on IL-8 substrate” value (human neutrophils; RT 1 hour before perfusion) was “failed to arrest” and the “decrease of number of arrested neutrophils” value (human neutrophils; RT 1 hour, P-selectin/ICAM-1/IL-8, 6 dyn·cm^−2) was “about 90%”. The “number of arrested neutrophils” value (human neutrophils; RT 1 hour, P-selectin/ICAM-1/IL-8, 6 dyn·cm^−2, vehicle about 200) was “about 20 cells per field-of-view”, the “inhibition of neutrophil extracellular superoxide anion production” value (neutrophils) was “about 50%” and the “IL-8-induced Ca^2+ signal (Fluo-4)” value [1] was “potently blocked”. The “neutrophils retained in the blood circulation compared to vehicle controls” value ([2]; 1 μmol per mouse i.p.) was “doubled”, the “percentage of neutrophils in heart leukocytes” value ([2]; 1 μmol per mouse i.p., vehicle about 50%) was “about 30%” and the “heart neutrophil counts (CD45^+Ly6G^+)” value ([2]; 1 μmol per mouse i.p., vehicle about 6000) was “about 2000”. For the same compound, the “LysM-GFP^+ leukocyte recruitment to the coronary artery (EGFP fluorescence)” value ([2]; LysM-EGFP mice, 1 μmol per mouse i.p. 30 minutes before reperfusion) was “significantly limited”.
